Data set [1] deals with Hepatitis C virus. Kind of data set: Antiviral activity against HCV genotype 1a assessed as inhibition of viral entry into Huh7 cells treated at 50 uM for 2 hr followed by 28 hrs incubation period in compound-free medium by immunofluorescence assay. It is filed as functional, cell-based. The conditions noted are these: Hepacivirus hominis, subtype 1a, Huh-7.
The subject of data set [2] is Hepatitis C virus. Briefly: Antiviral activity against HCV genotype 1a assessed as inhibition of viral entry into Huh7 cells treated for 2 hr followed by 28 hrs incubation period in compound-free medium by immunofluorescence assay. It is filed as functional, cell-based, Hepacivirus hominis. The conditions noted are these: subtype 1a, Huh-7.
Data set [3] in a line: Cytotoxicity against human HuH7 cells assessed as reduction cell viability up to 1 mM after 48 to 72 hrs by MTS assay. It counts as cell-based. The note with it: huh-7. A general note: Tetrazolium assays rely on reduction of a dye to a coloured formazan, in cell work by metabolically active cells.

Activity calls are given as the source filed them. No cut-off for these calls is given here.

Broadly, the IC50 is the concentration that inhibits the measured activity by half.

`CC1Oc2ccc(C#N)cc2C=C1C(=O)NC1CCNCC1` (centres undefined): in data set [1], the inhibition entry is “inactive”.

Consider `O=C(O[C@@H]1Cc2c(O)cc(O)cc2O[C@@H]1c1cc(O)c(O)c(O)c1)c1ccncc1`, for which the inhibition entry in data set [1] was “inactive”.

As for `O=C(O[C@@H]1Cc2c(O)cc(O)cc2O[C@H]1c1cc(O)c(O)c(O)c1)c1cc(O)c(O)c(O)c1`, the inhibition result in data set [1] is “Active”.

Regarding `O=C(O[C@@H]1Cc2c(O)cc(O)cc2O[C@@H]1c1cc(O)c(O)c(O)c1)c1ccc(F)c(F)c1`, the 50% inhibitory concentration (IC50) in data set [2] came out at 6.9 µM. Further, in data set [1], the inhibition entry was “Active”. In addition, the Activity entry in data set [3] was “Non-toxic”.

As for `O=C(O[C@@H]1Cc2c(O)cc(O)cc2O[C@@H]1c1cc(O)c(O)c(O)c1)c1cc(O)c(O)c(O)c1` [EPIGALOCATECHIN GALLATE], the IC50 in data set [2] worked out at 20 µM. Besides, the inhibition result in data set [1] is “Active”.

For the compound `CC1Oc2ccc(C#N)cc2C=C1C(=O)N[C@H]1CC[C@@H](N)CC1` (some centres undefined), the inhibition entry in data set [1] is “inactive”.

As for `O=C(O[C@H]1Cc2c(O)cc(O)cc2O[C@@H]1c1ccccc1)c1cc(O)c(O)c(O)c1` (racemic), the inhibition result in data set [1] is “inactive”.

Consider `O=C(O[C@@H]1Cc2c(O)cc(O)cc2O[C@@H]1c1cc(O)c(O)c(O)c1)c1ccccc1`, for which, in data set [2], the IC50 came to 27 µM. Also, the inhibition entry in data set [1] is “Active”. Moreover, the Activity result in data set [3] is recorded as “Non-toxic”.

For `O=C(O[C@@H]1Cc2ccccc2O[C@@H]1c1ccccc1)c1cc(O)c(O)c(O)c1` (racemic), the inhibition result in data set [1] is “inactive”.

(Values after ChEMBL document CHEMBL3351436, “Structure-activity studies of (-)-epigallocatechin gallate derivatives as HCV entry inhibitors” (Bioorg Med Chem Lett, 2014).)
